Reference: US7947739B2, “Tranexamic acid formulations” (Ferring B.V., priority 2004, dated 2011)
Where two headings read alike, the source gives them in different places.

How the values were obtained:
[1] = cited from earlier work; for dose excreted unchanged in the urine: IV 1 g
women with menorrhagia [2] = assay: Example 8: 3-cycle placebo-controlled study, menstrual blood loss (MBL) by alkaline hematin test, also stratified by fibroids; assay type: in vivo, human; settings: 3 cycles
[3] = Example 6: compartmental pharmacokinetic analysis; assay type: in vivo; settings: female, human, plasma, oral, 1.3 g; 295 mL/min×0.449; read-out: systemic clearance (CL)
Protocol: Compartmental analysis was performed on tranexamic acid data following single and multiple oral administrations of the modified release (MR) tablet formulation. Multiple compartmental models were constructed and their ability to fit plasma concentrations of tranexamic acid were evaluated using a standard two-stage (STS) approach with ADAPT-II (maximum likelihood analysis). The discrimination process was performed by computing the Akaike Information Criterion Test (AIC), the minimum value of the objective function (OBJ) and by looking at pertinent graphical representations of goodness of fit (e.g. fitted and observed concentrations versus time).
The final analysis was performed using an iterative two-stage approach with the IT2S® software. This software uses a population methodology which allows one to provide robust PK parameter estimates on an individual subject and population basis. All relevant pharmacokinetic parameters were calculated and reported. Concentrations were modeled using a weighting procedure of Wj=1/Sj^2 where the variance σj^2 was calculated for each observation using the equation σj^2=(a+b*Yj)^2 where a and b are the intercept and slope of each variance model. […] The analysis included the quantitative estimation of population PK parameters and interindividual variability of tranexamic acid in plasma.

women with menorrhagia [4] = assay: Example 9: 6-cycle placebo-controlled study, menstrual blood loss (MBL) by alkaline hematin test; assay type: in vivo, human; settings: 3.9 g/day
women with menorrhagia [5] = assay: Example 9: 6-cycle study, Menorrhagia Instrument measures, responders, sanitary products, large stains; assay type: in vivo, human
heavy menstrual bleeding = settings: cited from earlier work
[6] = Published pharmacokinetics of tranexamic acid (Pilbrant et al.; Cyklokapron NDA); assay type: in vivo; settings: human, serum, single 1.3 g oral dose, fasting, approx. 65% of 2 g dose published data
Protocol: By comparison, the in vivo absorption profile observed with the European immediate-release formulation is slow and very gradual over 3 hours. Specifically, tranexamic acid serum concentrations are 9, 41, 73, 88 percent (with food), and 22, 63, 85, and 98 percent (fasting) of maximal absorption at 0.5, 1, 1.5 and 2 hours after a 2 g oral dose, respectively.
Tranexamic acid is minimally bound (approximately 3%) to plasma proteins (mainly plasminogen) at “typical” therapeutic plasma concentrations of approximately 5-15 mg/L. The main route of elimination of tranexamic acid is renal glomerular filtration. After oral administration of tranexamic acid (250 or 500 mg) to healthy adults, between 40-70% of the administered dose is excreted unchanged in the urine within 24 hours. After IV administration (1 g) 30% of the dose is excreted unchanged in the urine within one hour, 45-55% within 2-3 hours and 90% within 24 hours.
For this reason, the concentration-time profile of tranexamic acid was estimated by simulating the data over 36 hours, after oral administration of a 1.3 g dose under fasting conditions, using NONMEM. Based on the simulation results, it would be appropriate to collect blood samples until 36 hours in order to characterize the AUC, Cmax, tmax, t½ and F.

women with menorrhagia [7] = assay: Example 8: 3-cycle study, Menorrhagia Instrument measures (MIQ Q1-Q6), responders, sanitary products, large stains; assay type: in vivo, human
[8] = Example 6: single dose followed by multiple doses study, noncompartmental plasma pharmacokinetics, linearity, steady state; assay type: in vivo, human; settings: 1.3 g every 8 hours
Protocol: After an overnight fast, subjects received a single oral dose of tranexamic acid (1.3 g) on Day 1. Blood samples were taken before dosing and up to 36 hours post-dose. Subjects received another single oral dose of tranexamic acid (1.3 g) on the evening of Day 2, and 3 times a day (every 8 hours) starting on the morning of Day 3 until the last dose on the morning of Day 7. Blood samples were taken before the 6th, 9th, 12th and 15th dose (the last dose) for the determination of Cmin, and up to 8 hours after the last dose, for the determination of drug concentration at steady-state. Subjects were housed from at least 10 hours before the 1st dose on Day 1 until after the 8-hour blood draw following the 15th dose (on Day 7). […]
Calculations for plasma tranexamic acid were calculated by noncompartmental methods using the following pharmacokinetic parameters in Tables 15 and 16:
Descriptive statistics including arithmetic means, standard deviations and coefficients of variation were calculated on the individual concentration and pharmacokinetic data. Additionally, geometric means were calculated for the parameters AUC0-t, AUCinf, and Cmax for Day 1 and AUCτ, Cmax and Cmin for Day 7. […]
The ratio of LSM was calculated using the exponentiation of the Day LSM from the analysis on the In-transformed response. The ratio was expressed as a percentage relative to AUCinf (Day 1). […]

[9] = 3.9 g/day compared with placebo

NC[C@H]1CC[C@H](C(=O)O)CC1 [tranexamic acid, trans-4-(aminomethyl)cyclohexanecarboxylic acid]
therapeutic antifibrinolytic range (therapeutic window) ([1]; Cyklokapron NDA 19-280): 5 to 15 µg/mL
dose excreted unchanged in the urine ([1]; within 2-3 hours): 45-55%
dose excreted unchanged in the urine ([1]; within 24 hours): 90%
dose excreted unchanged in the urine ([1]; within one hour): 30%
urinary recovery ([1]; Pilbrant, et al.): exceeded 95 % of the dose
gamma elimination half-life ([1]; after IV administration): approximately 7 hours
bound to plasma proteins ([1]; at therapeutic plasma concentrations of approximately 5-15 mg/L): approximately 3%
beta elimination half-life ([1]; in vivo): 2 h
excreted unchanged drug in the urine ([1]; in vivo): more than 95%
typical therapeutic plasma concentrations ([1]; in vivo): 5 to 15 mg/L
administered dose excreted unchanged in the urine ([1]; oral 250 or 500 mg, healthy adults, within 24 hours): 40-70%
mean reduction in MBL from baseline (women with menorrhagia [2]; 1.95 g/day): 46.5 mL
percent MBL reduction compared with baseline (women with menorrhagia [2]; 1.95 g/day): 26.1%
mean reduction in MBL from baseline (women with menorrhagia [2]; 3.9 g/day): 65.3 mL
percent MBL reduction compared with baseline (women with menorrhagia [2]; 3.9 g/day): 38.6%
clearance [3]: 123 mL/min
mean reduction in MBL from baseline (women with menorrhagia [4]; […], 6-cycle study): 69.6 mL
percent MBL reduction compared with baseline (women with menorrhagia [4]; […], 6-cycle study): 40.4%
regression slope of response over the six menstrual cycles (women with menorrhagia [4]; p=0.615): −0.90 mL/cycle
LWH (MI measure #2) (women with menorrhagia [5]; [9]): significantly reduced
subjects' assessments of MBL (MI measure #1) (women with menorrhagia [5]; [9]): significantly reduced
mean LPA score, change from baseline (women with menorrhagia [5]; 6-cycle study): significant treatment-related reductions
mean LSLA score, change from baseline (women with menorrhagia [5]; 6-cycle study): significant treatment-related reductions
women satisfied with the treatment (heavy menstrual bleeding; Winkler open label uncontrolled usage study, 849 patients): 80%
reduction of heavy menstrual bleeding (heavy menstrual bleeding; research from European countries): 40-50%
AUC(0-t) ([6]; read-out: expected mean AUC0-6): ~40000 ng·h/mL
Cmax ([6]; read-out: expected mean Cmax): ~10000 ng/mL
mean LPA score, change from baseline (women with menorrhagia [7]; 3-cycle study): Significant treatment-related reductions
mean LSLA score, change from baseline (women with menorrhagia [7]; 3-cycle study): Significant treatment-related reductions
LWH (MI measure 2) (women with menorrhagia [7]; [9]): significantly reduced
subjects' assessments of MBL (MI item 1) (women with menorrhagia [7]; [9]): significantly reduced
proportion of responders (women with menorrhagia [7]; 3.9 g/day, first menstrual cycle, reduction in MBL and meaningful improvement (MI 6c)): 71.0%
difference between the LSM of predose Day 6 and 7 [8]: less than 2%
largest difference in predose plasma concentrations, LSM of predose Day 5 compared to Day 6 and 7 [8]: less than 10%
